# Test results from US11273153B2, “MAPK inhibitors” (EverBrilliant Pharma Pty Ltd, priority 2014, dated 2022).
# Where “and” joins values, the source holds several entries; their conditions need not be identical. Equal values may be shown once. Read-outs that look alike come from different tables or passages of the source.
# What was measured:
# [1] = In vitro metabolic stability, human liver microsomes; format: in vitro ADME; details: for half-life: NADPH-dependent, read-out: Apparent Degradation half-life; for microsomal CLint: read-out: In vitro CLint (μL/min/mg protein)
# Experimental: (§1) The metabolic stability of compounds 4.1 and 4.5 was assayed in an in vitro assay which employed liver microsomes. Liver microsomes are valuable models for the determination of hepatic clearance because they contain a number of drug metabolising enzymes, such as the CYP450 enzymes. An in vitro metabolic stability study was conducted using human, rat and mouse liver microsomes as a prediction of the in vivo metabolic clearance. […] From the results, the rates of apparent compound degradation in human, rat and mouse liver microsomes were in agreement with the moderate to high microsome-predicted extraction ratios (EH) for both compounds 4.1 and 4.5.
# [2] = target: inactive non-phosphorylated p38α MAPK (Homo sapiens (Human), UniProt Q16539); experiment: Fluorescence polarisation (FP) binding assay, inactive enzyme
# Experimental: (§2) A number of compounds were also assessed for the inhibition of p38α MAPK activity (www.kinase-screen.mrc.ac.uk) in which a radioactive (^33P-labelled ATP) filter binding assay was used to directly measure phosphate incorporation. Table 1 summarises the binding affinities of the synthesised compounds to both forms of the enzyme as well as the inhibitory activities against p38α MAPK. By way of enabling a comparison with a non-thiophene compound the biological testing was also carried out for known inhibitor RWJ67657, shown in table 1.
# (§3) FP signals were measured with a PHERAstar microplate reader (BMG Labtech) using black, low-binding half-area 96 well plates (Corning). Each binding data point was carried out in duplicate or triplicate. Data were recorded in millipolarisation (mP) units and measured at an excitation wavelength of 485 nm and an emission wavelength of 520 nm. Tris(hydroxymethyl)aminomethane (Tris) assay buffer was used in all binding experiments and consisted of 10 mM Tris, […] potassium chloride, and 3.5 mM 3-((3-cholamidopropyl)dimethylammonium)-1-propanesulfonate (Chaps) at pH 8.0.
# (§4) Test compounds were prepared from dimethylsulfoxide stocks (10 mM). […] Plates were incubated at room temperature for 1 hour and FP signals were recorded. For binding experiments to active p38α MAPK, the FP signals were recorded after 2 hours incubation at room temperature. Data is represented as mean±SEM from two to three independent experiments.
# [3] = tested on: neonatal rat cardiac myocytes (NCM); experiment: Neonatal rat cardiac myocyte hypertrophy (3H-leucine incorporation); format: cell-based
# Experimental: Neonatal rat cardiac myocyte (NCM) hypertrophy was determined by ^3H-leucine incorporation following a published protocol on the above synthesised compounds using either Angiotensin II (AngII, 100 nM) or TNF-α (10 ng/mL) as the stimulus. ^3H levels were counted in scintillation fluid on a beta counter to determine levels of ^3H-leucine incorporation.
# [4] = tested on: neonatal rat cardiac fibroblasts (NCF); experiment: Neonatal rat cardiac fibroblast collagen synthesis (3H-proline incorporation); format: cell-based; details: AngII 100 nM stimulus
# Experimental: The effect of the compounds on neonatal rat cardiac fibroblasts (NCF) collagen synthesis was determined by measuring ^3H-proline incorporation following a published protocol using AngII (100 nM) as the stimulus. ^3H-proline incorporation was determined in the same way as the cardiac myocyte hypertrophy assay described above.
# [5] = target: active phosphorylated p38α MAPK (Homo sapiens (Human), UniProt Q16539); experiment: Fluorescence polarisation (FP) binding assay, active enzyme
# Experimental: as §2, §3, §4
# [6] = In vitro metabolic stability, rat liver microsomes; format: in vitro ADME; details: for half-life: NADPH-dependent, read-out: Apparent Degradation half-life; for microsomal CLint: read-out: In vitro CLint (μL/min/mg protein)
# Experimental: as §1
# p38α MAPK = p38α MAPK (Homo sapiens (Human), UniProt Q16539); experiment: Radioactive (33P-labelled ATP) filter binding assay of p38α MAPK activity; format: biochemical
# Experimental: as §2
# [7] = tested on: neonatal rat cardiac fibroblasts (NCF); experiment: NCF cell viability (MTT assay); format: cell-based
# Experimental: Measurement of NCF cell viability was carried out using a published method with the 3-(4,5-dimethylthiazol-2-yl)-2,5-diphenyltetraxolium bromide (MTT) assay.
# [8] = In vitro metabolic stability, mouse liver microsomes; format: in vitro ADME; details: for half-life: NADPH-dependent, read-out: Apparent Degradation half-life; for microsomal CLint: read-out: In vitro CLint (μL/min/mg protein)
# Experimental: as §1
# [9] = tested on: IL-6 gene expression in monocytic (THP-1) cells; experiment: LPS-induced IL-6 gene expression in THP-1 cells; format: cell-based; details: LPS-stimulated THP-1 cells
# Experimental: Certain of the compounds were tested in a cellular assay for suppression of TNF-α and IL-6 gene expression in monocytic (THP-1) cells and the assay results are depicted in FIGS. 2 and 3. A published method was used whereby treating THP-1 cells with LPS induces TNF-α and IL-6 gene expression.
# [10] = Acute toxicity study in rats; format: in vivo, male Sprague-Dawley (SD) rats; details: two weeks
# Experimental: (§5) An acute toxicity study of compound 4.5 was carried out. In this toxicity study, four male Sprague-Dawley (SD) rats received 150 mg/kg of compound 4.5 twice daily by oral gavage over a period of two weeks. The control group consisting of four male SD rats received 1% carboxymethylcellulose (CMC) in water. Blood samples were collected for analysis at 1 and 12 hours after the first dose and at the 7 and 14 day troughs. The rats were then sacrificed and organs collected for analysis. Individual body weights were measured at day −1, 2, 4, 7, 10 and 14. FIG. 7 indicates the blood results from an acute toxicity study for 4.5.
# (§6) The full blood, haemoglobin, haemocrit, red cell count, mean corpuscular haemoglobin, mean corpuscular volume, red cell distribution width, mean corpuscular haemoglobin concentration and liver function were all assessed. […] The CDCO analysed blood samples using HPLC-MS to determine the concentrations of compound 4.5 in rat plasma at different time points (Table 3).
# [11] = Plasma concentrations in the acute toxicity study (HPLC-MS); format: in vivo, rat; details: for Concentration in rat plasma: 150 mg/kg twice daily oral gavage, individual rats 1-4, rat 2 atypical and excluded
# Experimental: as §5, §6
# [12] = 150 mg/kg twice daily oral gavage
# Sequence of inactive non-phosphorylated p38α MAPK (Q16539 whole entry): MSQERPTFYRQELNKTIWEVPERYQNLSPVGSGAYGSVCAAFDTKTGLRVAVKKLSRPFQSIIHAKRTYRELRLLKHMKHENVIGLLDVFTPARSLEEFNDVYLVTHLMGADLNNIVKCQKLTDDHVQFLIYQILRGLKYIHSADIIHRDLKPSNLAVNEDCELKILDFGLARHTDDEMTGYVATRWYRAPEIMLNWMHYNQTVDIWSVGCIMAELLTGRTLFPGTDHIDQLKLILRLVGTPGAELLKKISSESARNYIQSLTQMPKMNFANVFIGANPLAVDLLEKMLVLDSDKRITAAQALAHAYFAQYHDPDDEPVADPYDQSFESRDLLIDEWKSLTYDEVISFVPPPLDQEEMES
# Sequence of active phosphorylated p38α MAPK (Q16539 whole entry): as above
# Sequence of p38α MAPK (Q16539 whole entry): as above
structure (smiles),measurement,setting,value
"OCCC#Cc1sc(-c2ccc(F)cc2)c(-c2ccncc2)c1CCCc1ccccc1 [Compound 4.1, 4-(5-(4-Fluorophenyl)-3-(3-phenylpropyl)-4-(pyridin-4-yl)thiophen-2-yl)but-3-yn-1-ol]",Microsome predicted EH,[1],0.92
same,half-life,[1],8 min
same,microsomal CLint,[1],219 µL/min/mg
same,Ki,"[2]; Table 1, read-out: Ki (μM, mean ± SEM) inactive p38α",2.3 ± 0.2 µM
same,Ki,"[2]; Table 6, read-out: Ki ± SEM (μM) to inactive p38α",2.3 ± 0.2 µM
same,suppression of AngII-induced NCM hypertrophy,[3]; AngII 100 nM stimulus,suppression of NCM hypertrophy
same,suppression of TNF-α-induced NCM hypertrophy,[3]; TNF-α 10 ng/mL stimulus,suppression of NCM hypertrophy
same,inhibition of AngII-stimulated NCF collagen synthesis,[4],did not suppress AngII-induced NCF collagen synthesis at 1 μM concentration
same,Ki,"[5]; Table 1, read-out: Ki (μM, mean ± SEM) active p38α",0.6 ± 0.1 µM
same,Ki,"[5]; Table 6, read-out: Ki ± SEM (μM) to active p38α",0.6 ± 0.1 µM
same,Microsome predicted EH,[6],~0.91
same,half-life,[6],~5 min
same,microsomal CLint,[6],~319 µL/min/mg
same,IC50,"p38α MAPK; Table 1, average of two experiments, read-out: IC50 (μM, mean)",0.18 µM
same,IC50,"p38α MAPK; Table 6, read-out: IC50 (mean)",0.18 µM
same,NCF cell viability,[7]; 10 μM concentration,no affect on NCF cell viability
same,Microsome predicted EH,[8],~0.94
same,half-life,[8],~5 min
same,microsomal CLint,[8],~342 µL/min/mg
same,inhibition of LPS-induced IL-6 gene expression,[9],strong inhibition
"OCCC#Cc1cc(-c2ccncc2)c(-c2ccc(F)cc2)s1 [Compound 4.5, 4-(5-(4-Fluorophenyl)-4-(pyridin-4-yl)thiophen-2-yl)but-3-yn-1-ol]",Microsome predicted EH,[1],0.58
same,half-life,[1],71 min
same,microsomal CLint,[1],24 µL/min/mg
same,Microsome predicted EH,[6],0.78
same,half-life,[6],16 min
same,microsomal CLint,[6],110 µL/min/mg
same,average body weight compared to vehicle group,[10]; [12],no difference in the average body weight compared to the vehicle group
same,"full blood, haemoglobin, haemocrit, red cell parameters and liver function, treated vs vehicle",[10]; [12],No differences were observed between treated and vehicle groups
same,liver function,[10]; [12],no changes to liverfunction
same,mass of the spleen,[10]; [12],loss in the mass of the spleen
same,"weights of the kidneys, heart and liver",[10]; [12],the same as the vehicle group
same,tolerability in rats,[10]; 300 mg/kg/day,well tolerated
same,NCF cell viability,[7]; 25 μM concentration,no affect on NCF cell viability
same,Microsome predicted EH,[8],0.89
same,half-life,[8],9 min
same,microsomal CLint,[8],184 µL/min/mg
same,Concentration in rat plasma,[11]; 1 hour post first dose,1357 nM and 0.9 nM and 325 nM and 327 nM
same,Concentration in rat plasma,[11]; 12 hours post first dose,8 nM and 7 nM and 147 nM and 5 nM
same,Concentration in rat plasma,[11]; 7 day trough,5 nM and 424 nM and 58 nM and 6 nM
same,Concentration in rat plasma,[11]; 14 day trough,7 nM and 105 nM and 32 nM and 14 nM
same,peak plasma levels relative to the enzyme IC50 value,"[11]; intake of 300 mg/kg/day, rat",two to nine times higher
